In patent US11760773B2, “Small molecule drug conjugates of gemcitabine monophosphate” (MaveriX Oncology, Inc., priority 2018, dated 2023):

Tests used:
[1] = Metabolic stability in liver hepatocytes, monkey; type: in vitro ADME
[2] = system: UT-SCC-16A; assay: Tumor cell proliferation (alamarBlue) cytotoxicity assay, UT-SCC-16A; type: cell-based, human; conditions: Homo sapiens, 72 hours treatment
Protocol: (§1) A tumor cell proliferation assay was used to determine cytotoxicity IC50 values for the phosphate prodrug Compounds 1-9, the parent non-phosphorylated SMDC parent compounds, and the effector (gemcitabine) across eight primary early-passage human head and neck squamous cell carcinoma cell lines including UT-SCC-5, UT-SCC-8, UT-SCC-9, UT-SCC-10, UT-SCC-14, UT-SCC-16A, UT-SCC-16B, and UT-SCC-24A.
(§2) UTSCC cells were seeded at 4000 cells/100 I/well on 96-well black clear-bottom tissue culture plate. Cells were incubated at 37° C. and 5% CO2 overnight to allow them to recover and re-attach. The next day cells were treated with the test compound (0-100 μM) for 72 hours. After treatment, cell proliferation was measured by Fluorescent quantitation of alamarBlue reagent. The alamarBlue assay incorporates a fluorometric/colorimetric growth indicator based on detection of metabolic activity. Specifically, resazurin, the active ingredient of alamarBlue reagent, is blue in color and virtually non-fluorescent. Upon entering cells, resazurin is reduced to resorufin, a compound that is red in color and highly fluorescent.
(§3) Continued cell growth maintains a reduced environment, therefore increasing the overall fluorescence and color of the media surrounding cells. The fluorescence intensity of alamarBlue reagent was directly proportional to cell number. To perform the alamarBlue assay, 10 I of alamarBlue reagent was added to each well and the plate was incubated at 37° C. for an additional 2 hour. Fluorescence intensity was measured at an excitation of 530 nm and an emission of 590 nm using a BioTek Synergy™ 2 microplate reader.
(§4) Cell proliferation assays in triplicate were performed at each concentration. The fluorescent intensity data were analyzed using the computer software, Graphpad Prism. In the absence of the compound, the fluorescent intensity (Ft) in each data set was defined as 100%. In the absence of cells, the fluorescent intensity (Fb) in each data set was defined as 0%. The percent cell in the presence of each compound was calculated according to the following equation: % cell=(F−Fb)/(Ft−Fb), where F=the fluorescent intensity in the presence of the compound, Fb=the fluorescent intensity in the absence of cells, and Ft=the fluorescent intensity in the absence of the compound. The values of % cell versus a series of compound concentrations were then plotted using non-linear regression analysis of Sigmoidal dose-response curve generated with the equation Y=B+(T−B)/1+10^((Log EC50-X)×Hill Slope) where Y=percent cell, B=minimum percent cell, T=maximum percent cell, X=logarithm of compound and Hill Slope=slope factor or Hill coefficient. The IC50 value was determined by the concentration causing a half-maximal percent activity.

[3] = in the clinic; cited from earlier work
[4] = Metabolic stability in liver hepatocytes, dog; type: in vitro ADME
[5] = Liver microsomal stability, human; type: in vitro ADME
[6] = Metabolic stability in liver hepatocytes, rat; type: in vitro ADME
[7] = Comparative PK of Int 1-4 versus gemcitabine in rat plasma (study i); type: in vivo, Sprague-Dawley rats; conditions: for half-life: Sprague-Dawley, rat, iv; for MRT inf: read-out: MRT0-inf; for MRT last: read-out: MRT0-last
Description: PK measurements: compare PK parameters C0, CL, Vdss, Cmax, tmax, t1/2, AUC(0-t), AUC(0-inf), MRT(0-t), MRT(0-inf) for Int 1-4 and gemcitabine.

[8] = system: UT-SCC-5; assay: Tumor cell proliferation (alamarBlue) cytotoxicity assay, UT-SCC-5; type: cell-based, human; conditions: Homo sapiens; UT-SCC-5, 72 hours treatment
Protocol: as §1, §2, §3, §4

[9] = system: UT-SCC-10; assay: Tumor cell proliferation (alamarBlue) cytotoxicity assay, UT-SCC-10; type: cell-based, human; conditions: Homo sapiens; UT-SCC-10, 72 hours treatment
Protocol: as §1, §2, §3, §4

[10] = system: UT-SCC-8; assay: Tumor cell proliferation (alamarBlue) cytotoxicity assay, UT-SCC-8; type: cell-based, human; conditions: Homo sapiens; UT-SCC-8, 72 hours treatment
Protocol: as §1, §2, §3, §4

[11] = Metabolic stability in liver hepatocytes, human; type: in vitro ADME
[12] = system: UT-SCC-14; assay: Tumor cell proliferation (alamarBlue) cytotoxicity assay, UT-SCC-14; type: cell-based, human; conditions: Homo sapiens; UT-SCC-14, 72 hours treatment
Protocol: as §1, §2, §3, §4

[13] = system: UT-SCC-16B; assay: Tumor cell proliferation (alamarBlue) cytotoxicity assay, UT-SCC-16B; type: cell-based, human; conditions: Homo sapiens, 72 hours treatment
Protocol: as §1, §2, §3, §4

[14] = Comparative dog plasma PK of Int 1-4 versus gemcitabine (study k); type: in vivo; conditions: male beagle dog, after iv gemcitabine 5.29 mg/kg, read-out: MRT0-inf
[15] = system: UT-SCC-9; assay: Tumor cell proliferation (alamarBlue) cytotoxicity assay, UT-SCC-9; type: cell-based, human; conditions: Homo sapiens; UT-SCC-9, 72 hours treatment
Protocol: as §1, §2, §3, §4

[16] = Compound 1 and gemcitabine plasma PK in the male cynomolgus monkey (study h); type: in vivo; conditions: plasma; for AUC(0-inf): read-out: AUC0-inf; for MRT inf: read-out: MRT0-inf; for MRT last: read-out: MRT0-last
Protocol: Objectives: to compare the plasma pharmacokinetics and stability of the Compound 1 with Int 1-4 and in plasma following a single intravenous infusion administration of Compound 1 at 5 mg/kg and 10 mg/kg with equimolar gemcitabine at 2.28 mg/kg in male cynomolgous monkeys.
PK measurements: compare PK parameters C0, CL, Vdss, Cmax, tmax, t1/2, AUC(0-t), AUC(0-inf), MRT(0-t), MRT(0-inf) for Compound 1 and Int 1-4 with gemcitabine.

[17] = plasma, Sprague-Dawley rat, after iv Int 1-4 10.0 mg/kg
[18] = plasma, Sprague-Dawley rat, after iv gemcitabine 4.47 mg/kg
[19] = after iv gemcitabine 2.28 mg/kg

## Nc1ccn([C@@H]2O[C@H](CO)[C@@H](O)C2(F)F)c(=O)n1 [Gemcitabine, gemcitabine]
[1]
  Slope Mean ± SE: 0.001817 ± 0.001897
[2]
  IC50: 0.061 µM
[3]
  injected dose recovered in the urine: 90%
  share of the dose recovered in urine found as this species: 1%
[4]
  Slope Mean ± SE: 0.000126 ± 0.001156
[5]; human liver microsomes
  half-life: 0.335 h
[5]; human liver microsomes, 0 min
  Compound Remaining (% of 0 min) 0 min: 100 % of 0 min
[5]; human liver microsomes, 5 min
  Compound Remaining (% of 0 min) 5 min: 113 % of 0 min
[5]; human liver microsomes, 15 min
  Compound Remaining (% of 0 min) 15 min: 69.1 % of 0 min
[5]; human liver microsomes, 30 min
  Compound Remaining (% of 0 min) 30 min: 48.6 % of 0 min
[5]; human liver microsomes, 45 min
  Compound Remaining (% of 0 min) 45 min: 22.4 % of 0 min
[5]; human liver microsomes, control
  Compound Remaining (% of 0 min) control: 98.1 % of 0 min
[5]; human, liver microsomes
  microsomal CLint: 68.8 µL/min/mg
[6]
  Slope Mean ± SE: 0.00055 ± 0.001504
[7]; plasma, 4.47 mg/kg, plasma, Sprague-Dawley rat, after iv gemcitabine 4.47 mg/kg
  half-life: ~3.3 h
[7]; plasma, 10 mg/kg, plasma, Sprague-Dawley rat, after iv Int 1-4 10.0 mg/kg
  half-life: ~9.43 h
[7]; [17]
  AUC0-inf/AUC0-last: 235%
  AUC(0-inf): 6 µg·h/mL
  AUC(0-t): 2.76 µg·h/mL
  T1/2: 9.43 h
  MRT inf: 13.8 h
  MRT last: 3.38 h
[7]; plasma, Sprague-Dawley rat, after iv gemcitabine
  clearance: 0.262 L/h/kg
[7]; [18]
  AUC0-inf/AUC0-last: 122%
  AUC(0-inf): 18 µg·h/mL
  AUC(0-t): 14.7 µg·h/mL
  C0: 8.41 µg/mL
  T1/2: 3.26 h
  MRT inf: 4.63 h
  MRT last: 2.82 h
[7]; plasma, Sprague-Dawley rat, after iv gemcitabine 4.47 mg/kg, read-out: Vdss
  Vd: 1.21 L/kg
[7]; rat versus mouse plasma, iv gemcitabine
  plasma half-life in rats relative to mice: 3 ×
[8]
  IC50: 0.009 µM
[9]
  IC50: 0.009 µM
[10]
  IC50: 0.022 µM
[11]
  Slope Mean ± SE: −0.00684 ± 0.001905
[11]; read-out: t1/2 mean ± SE
  half-life: 1.69 ± 0.47 h
[12]
  IC50: 0.006 µM
[13]
  IC50: 0.099 µM
[14]
  MRT inf: 2.5 h
[15]
  IC50: 0.035 µM
[16]; after iv Compound 1 5 mg/kg
  AUC(0-t): 0.00785 µg·h/mL
  half-life: 7.8 min
  AUC(0-inf): 0.007 µg·h/mL
  MRT inf: 0.23 h
  MRT last: 0.19 h
[16]; [19]
  AUC(0-t): 0.164 µg·h/mL
  C0: 13.4 µg/mL
  clearance: 14.8 L/h/kg
  half-life: 1.2 min
  AUC(0-inf): 0.165 µg·h/mL
  MRT inf: 0.02 h
  MRT last: 0.02 h
[16]; after iv gemcitabine 2.28 mg/kg, read-out: Vdss
  Vd: 0.231 L/kg
